The results in this text go back to patent publication US6828343B2, “Bicyclic pyrrolyl amides as glycogen phosphorylase inhibitors” (Pfizer, Inc., priority 1999, dated 2004).

Each structure is given as a SMILES string.

As to `O=C(N[C@@H](Cc1ccccc1)C(=O)N1CCOCC1)c1cc2cc(Cl)sc2[nH]1` [Example 19, 2-chloro-6H-thieno[2,3-b]pyrrole-5-carboxylic acid [(1S)-benzyl-2-morpholin-4-yl-2-oxo-ethyl]-amide], the melting point is 108 to 110 °C.

A word on the melting point: it is the temperature, or range, at which the solid turns liquid.
